# According to patent US20060123492A1, “Methods of identifying modulators of NMUR2-mediated activity” (priority 2003, published 2006):
# Key:
# wild type mice = experiment: Tail flick test, effect of morphine in wild type mice; assay type: in vivo; conditions: adult male wild type mice, 30 minutes after injection
# From the text: (§1) Mice were gently held on a platform of an automated apparatus wrapped in a soft cloth. Their tails were exposed and extended in a straight line along a narrow groove. Once the tail was laying flat in the groove, the experimenter activated a high-intensity and heat producing narrow beam of light that was directed at a small spot in the tail. When the animal reached its pain threshold, a spinal reflex caused the tail to “flick” out of the light beam, automatically stopping a timer that started when the beam was activated. Each animal was tested 3 times, on different regions of the tail, and the median latency to “flick” was recorded as the nociceptive threshold. Experiments were performed blind with respect to the animals' genotype. The results are shown in FIGS. 1 and 2 in wild-type, heterozygous, and NMUR2 knock-out mice (FIG. 1) and for male and female mice (FIG. 2).
# (§2) Adult male mice were treated with the mu opiate receptor agonist morphine at either 0, 2.5, 5, or 10 mg/kg sub-cutaneously. At each dose, 4 wild type mice and 4 knock-outs were treated. Tail flick latencies were determined 30 minutes after injection of morphine or vehicle, with a maximum flick latency of 15 seconds allowed to prevent tissue damage. […] The difference between the tail flick latencies of the two genotypes at 2.5 mg/kg morphine could not be accounted for by the baseline difference in tail flick latencies normally observed between the wild types and the knock-outs, both because the difference in latency was larger, and because the enhancement of morphine analgesia is significant while the mild baseline analgesia observed in the NmUR2 knock-outs was not.
# NMUR2 knock-out mice = experiment: Tail flick test, effect of morphine in NMUR2 knock-out mice; assay type: in vivo; conditions: adult male NMUR2 knock-out mice, 30 minutes after injection
# From the text: as §1, §2
structure (smiles),measurement,setting,value
CN1CC[C@]23c4c5ccc(O)c4O[C@H]2[C@@H](O)C=C[C@H]3[C@H]1C5 [morphine],analgesia (tail flick latency),wild type mice; 2.5 mg/kg sub-cutaneously,mild analgesia
same,analgesia (tail flick latency),wild type mice; 5 mg/kg sub-cutaneously,maximal analgesia
same,analgesia (tail flick latency),wild type mice; 10 mg/kg sub-cutaneously,maximal analgesia
same,analgesia (tail flick latency),NMUR2 knock-out mice; 2.5 mg/kg sub-cutaneously,augmented analgesia
same,tail flick latency,"NMUR2 knock-out mice; 2.5 mg/kg sub-cutaneously, maximum flick latency of 15 seconds allowed",15 s
same,analgesia (tail flick latency),NMUR2 knock-out mice; 5 mg/kg sub-cutaneously,maximal analgesia
same,analgesia (tail flick latency),NMUR2 knock-out mice; 10 mg/kg sub-cutaneously,maximal analgesia
